Experimental data as given in ChEMBL document CHEMBL1201862, “PubChem BioAssay data set” (2004).
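Briefly, cells in 96-well plates were exposed to five compound concentrations for 48 h, and endpoints were estimated by linear interpolation. The concentration for 50% growth inhibition is given as GI50.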 Calls of active or inactive are those of the source. Cut-off read from the data, not from the text of the source: active = GI50 up to about 1.1 µM and inactive = higher. Residues, ends and D or L forms follow the SMILES beside them. *: point of attachment. Boc = CC(C)(C)OC(=O)*; OBn = c1ccc(CO*)cc1

Tests used:
Test in all cases: NCI-60 cell line screen, 48 h
[1] = test system: RXF 393
[2] = test system: EKVX
[3] = test system: UACC-62
[4] = test system: Malme-3M
[5] = test system: SN12C
[6] = test system: HCC 2998
[7] = test system: SW-620
[8] = test system: K562
[9] = test system: NCI/ADR-RES
[10] = test system: Hs-578T
[11] = test system: SF-268
[12] = test system: MCF7
[13] = test system: PC-3
[14] = test system: BT-549
[15] = test system: CCRF-CEM
[16] = test system: 786-0
[17] = test system: OVCAR-5
[18] = test system: HT-29
[19] = test system: SNB-75
[20] = test system: HOP-92

SMILES: CC(C)CC(NC(=O)OC(C)(C)C)C(=O)NC(CC(=O)OCc1ccccc1)C(=O)OCc1ccccc1 (stereo not drawn) (Boc-Leu-Asp(OBn)-OBn; configuration not given here)
- GI50 [1]: 26.1 µM (inactive)
- GI50 [2]: > 100 µM (inactive)
- GI50 [3]: 21.9 µM (inactive)
- GI50 [4]: 51.5 µM (inactive)
- GI50 [5]: 22.4 µM (inactive)
- GI50 [6]: 20.9 µM (inactive)
- GI50 [7]: 34.2 µM (inactive)
- GI50 [8]: 33.5 µM (inactive)
- GI50 [9]: > 100 µM (inactive)
- GI50 [10]: > 100 µM (inactive)
- GI50 [11]: 41.8 µM (inactive)
- GI50 [12]: 31.5 µM (inactive)
- GI50 [13]: 29.4 µM (inactive)
- GI50 [14]: 81.5 µM (inactive)
- GI50 [15]: 33.1 µM (inactive)
- GI50 [16]: 19 µM (inactive)
- GI50 [17]: > 100 µM (inactive)
- GI50 [18]: 37.5 µM (inactive)
- GI50 [19]: 87.9 µM (inactive)
- GI50 [20]: 30.6 µM (inactive)

SMILES: CC(=O)NC1C(OCc2ccccc2)OC(CO)C(O)C1OCC(=O)N[C@@H](C)C(=O)N[C@H](CCC(=O)NCCCCNc1c2ccccc2nc2cccc([N+](=O)[O-])c12)C(N)=O (stereo not given in full)
- GI50 [1]: 1.53 µM (inactive)
- GI50 [2]: 2.07 µM (inactive)
- GI50 [3]: 1.51 µM (inactive)
- GI50 [4]: 1.34 µM (inactive)
- GI50 [5]: 2.25 µM (inactive)
- GI50 [6]: 0.682 µM (active)
- GI50 [7]: 0.618 µM (active)
- GI50 [8]: 1.13 µM (inactive)
- GI50 [9]: 16.7 µM (inactive)
- GI50 [10]: 3.1 µM (inactive)
- GI50 [11]: 2.58 µM (inactive)
- GI50 [12]: 0.771 µM (active)
- GI50 [13]: 1.24 µM (inactive)
- GI50 [14]: 2.74 µM (inactive)
- GI50 [15]: 4.11 µM (inactive)
- GI50 [16]: 0.998 µM (active)
- GI50 [17]: 3.56 µM (inactive)
- GI50 [18]: 1.18 µM (inactive)
- GI50 [19]: 1.79 µM (inactive)
- GI50 [20]: 0.748 µM (active)

SMILES: O=C(O)CCc1ccc(-c2ccccc2)[nH]1
- GI50 [1]: > 100 µM (inactive)
- GI50 [2]: > 100 µM (inactive)
- GI50 [3]: > 100 µM (inactive)
- GI50 [4]: > 100 µM (inactive)
- GI50 [5]: > 100 µM (inactive)
- GI50 [6]: > 100 µM (inactive)
- GI50 [7]: > 100 µM (inactive)
- GI50 [8]: > 100 µM (inactive)
- GI50 [9]: > 100 µM (inactive)
- GI50 [10]: > 100 µM (inactive)
- GI50 [11]: > 100 µM (inactive)
- GI50 [12]: > 100 µM (inactive)
- GI50 [13]: > 100 µM (inactive)
- GI50 [14]: > 100 µM (inactive)
- GI50 [15]: 70.6 µM (inactive)
- GI50 [16]: > 100 µM (inactive)
- GI50 [17]: > 100 µM (inactive)
- GI50 [18]: > 100 µM (inactive)
- GI50 [19]: > 100 µM (inactive)
- GI50 [20]: > 100 µM (inactive)

SMILES: CNc1nc2n(CCO)c(-c3ccccc3)c(-c3ccccc3)nc-2c(=O)n1
- GI50 [1]: > 50 µM (inactive)
- GI50 [2]: > 50 µM (inactive)
- GI50 [3]: > 50 µM (inactive)
- GI50 [4]: > 50 µM (inactive)
- GI50 [5]: > 50 µM (inactive)
- GI50 [6]: > 50 µM (inactive)
- GI50 [7]: > 50 µM (inactive)
- GI50 [8]: > 50 µM (inactive)
- GI50 [9]: > 50 µM (inactive)
- GI50 [10]: > 50 µM (inactive)
- GI50 [11]: > 50 µM (inactive)
- GI50 [12]: > 50 µM (inactive)
- GI50 [13]: > 50 µM (inactive)
- GI50 [14]: > 50 µM (inactive)
- GI50 [15]: > 50 µM (inactive)
- GI50 [16]: > 50 µM (inactive)
- GI50 [17]: > 50 µM (inactive)
- GI50 [18]: > 50 µM (inactive)
- GI50 [19]: > 50 µM (inactive)
- GI50 [20]: > 50 µM (inactive)
